Inconclusive results and toxic doses are left out. Rule as the data show it: active = T/C of 150% or more; inactive = T/C below 125%.
System: L1210 leukemia ip in BDF1 mice, survival T/C
Test: NCI In Vivo Anticancer Drug Screen. Data for tumor model L1210 Leukemia (intraperitoneal) in B6D2F1 (BDF1) mice
Conditions: endpoint: mean survival time, higher = longer survival
How it was run: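 Tumor cells were implanted, animals were treated, and survival was followed. The result divides the treated measurement by the vehicle-control measurement.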

[1] = dose: 100.0 mg/kg/injection, schedule: Q04DX003 (ip), vehicle: Klucel (hydroxypropylcellulose) (HPC)
[2] = dose: 400.0 mg/kg/injection, schedule: Q01DX001 (ip), vehicle: saline
[3] = dose: 100.0 mg/kg/injection, schedule: Q01DX001 (ip), vehicle: saline
[4] = dose: 200.0 mg/kg/injection, schedule: Q01DX001 (ip), vehicle: saline

Measured: T/C

CC1C[N-]1.CC1C[N-]1.[Cl][Pt+2][Cl] (stereo not given)
inactive: dose: 25.0 mg/kg/injection, schedule: Q01DX009 (ip), vehicle: saline 102 % of control | dose: 50.0 mg/kg/injection, schedule: Q01DX009 (ip), vehicle: saline 103 % of control | dose: 50.0 mg/kg/injection, schedule: Q04DX003 (ip), vehicle: saline 95 % of control | dose: 100.0 mg/kg/injection, schedule: Q01DX009 (ip), vehicle: saline 101 % of control | dose: 100.0 mg/kg/injection, schedule: Q04DX003 (ip), vehicle: saline 98 % of control | dose: 200.0 mg/kg/injection, schedule: Q04DX003 (ip), vehicle: saline 98 % of control

O=S(c1ccccc1)C1CCCCC1O (stereo not given)
inactive: dose: 100.0 mg/kg/injection, schedule: Q04DX002 (ip), vehicle: saline with Tween-80 108 % of control | dose: 200.0 mg/kg/injection, schedule: Q04DX002 (ip), vehicle: saline with Tween-80 118 % of control

CCOCc1cccc(C(=O)NCCCc2c(-c3ccccc3)nc(N)[nH]c2=O)c1
inactive: dose: 36.2 mg/kg/injection, schedule: Q01DX001 (ip), vehicle: Klucel (hydroxypropylcellulose) (HPC) 94 % of control | dose: 62.5 mg/kg/injection, schedule: Q01DX001 (ip), vehicle: Klucel (hydroxypropylcellulose) (HPC) 105 % of control | dose: 125.0 mg/kg/injection, schedule: Q01DX001 (ip), vehicle: Klucel (hydroxypropylcellulose) (HPC) 98 % of control

CCCCCCCCCCCCCCCC[N+](C)(C)C
inactive: dose: 0.93 mg/kg/injection, schedule: Q04DX003 (ip), vehicle: saline 97 % of control | dose: 1.09 mg/kg/injection, schedule: Q01DX009 (ip), vehicle: saline 100 % of control | dose: 1.87 mg/kg/injection, schedule: Q01DX009 (ip), vehicle: saline 92 % of control | dose: 1.87 mg/kg/injection, schedule: Q04DX003 (ip), vehicle: saline 106 % of control | dose: 2.0 mg/kg/injection, schedule: Q01DX015 (ip), vehicle: saline 94 % of control | dose: 2.18 mg/kg/injection, schedule: Q01DX009 (ip), vehicle: saline 100 % of control | dose: 3.75 mg/kg/injection, schedule: Q01DX009 (ip), vehicle: saline 92 % of control | dose: 3.75 mg/kg/injection, schedule: Q04DX003 (ip), vehicle: saline 95 % of control | dose: 4.0 mg/kg/injection, schedule: Q01DX015 (ip), vehicle: saline 95 % of control | dose: 4.37 mg/kg/injection, schedule: Q01DX009 (ip), vehicle: saline 91 % of control | dose: 6.25 mg/kg/injection, schedule: Q04DX003 (ip), vehicle: saline 101 % of control | dose: 7.5 mg/kg/injection, schedule: Q01DX009 (ip), vehicle: saline 92 % of control | dose: 7.5 mg/kg/injection, schedule: Q04DX003 (ip), vehicle: saline 90 % of control | dose: 11.0 mg/kg/injection, schedule: Q01DX009 (ip), vehicle: saline 113 % of control | dose: 12.5 mg/kg/injection, schedule: Q01DX001 (ip), vehicle: saline 95 % of control | dose: 12.5 mg/kg/injection, schedule: Q04DX003 (ip), vehicle: saline 105 % of control | dose: 25.0 mg/kg/injection, schedule: Q01DX001 (ip), vehicle: saline 98 % of control | dose: 25.0 mg/kg/injection, schedule: Q04DX003 (ip), vehicle: carboxymethylcellulose (CMC) 105 % of control | dose: 25.0 mg/kg/injection, schedule: Q04DX003 (ip), vehicle: saline 90 % of control | dose: 35.0 mg/kg/injection, schedule: Q04DX003 (ip), vehicle: saline 88 % of control | dose: 50.0 mg/kg/injection, schedule: Q04DX003 (ip), vehicle: carboxymethylcellulose (CMC) 100 % of control | [1] 103 % of control

O=[N+]([O-])c1cccc(C2=NNC(c3cccc([N+](=O)[O-])c3)=NN2)c1
inactive: dose: 175.0 mg/kg/injection, schedule: Q01DX001 (ip), vehicle: saline 87 % of control | dose: 265.0 mg/kg/injection, schedule: Q01DX001 (ip), vehicle: saline 92 % of control | [2] 89 % of control | dose: 600.0 mg/kg/injection, schedule: Q01DX001 (ip), vehicle: saline 89 % of control

COC1=C(N)C(=O)c2ncccc2C1=O
inactive: dose: 4.0 mg/kg/injection, schedule: Q01DX009 (ip), vehicle: acetone 105 % of control | dose: 8.0 mg/kg/injection, schedule: Q01DX009 (ip), vehicle: acetone 105 % of control | dose: 16.0 mg/kg/injection, schedule: Q01DX009 (ip), vehicle: acetone 102 % of control

Nc1ccc(NC(=S)S)cc1
inactive: dose: 75.0 mg/kg/injection, schedule: Q01DX001 (ip), vehicle: saline 93 % of control | dose: 150.0 mg/kg/injection, schedule: Q01DX001 (ip), vehicle: saline 93 % of control

O=[N+]([O-])c1ccc(N=NN(CCF)CCF)cc1
inactive: dose: 6.25 mg/kg/injection, schedule: Q01DX Z (ip), vehicle: saline 93 % of control | dose: 10.0 mg/kg/injection, schedule: Q01DX Z (ip), vehicle: saline 97 % of control | dose: 30.0 mg/kg/injection, schedule: Q01DX Z (ip), vehicle: saline 108 % of control

COC(=O)C1(c2ccccc2)C(c2ccccc2)=C(c2ccccc2)C(c2ccccc2)CC1c1ccccc1 (stereo not given)
inactive: dose: 100.0 mg/kg/injection, schedule: Q04DX002 (ip), vehicle: Klucel (hydroxypropylcellulose) (HPC) 103 % of control | dose: 200.0 mg/kg/injection, schedule: Q04DX002 (ip), vehicle: Klucel (hydroxypropylcellulose) (HPC) 96 % of control | dose: 400.0 mg/kg/injection, schedule: Q04DX002 (ip), vehicle: Klucel (hydroxypropylcellulose) (HPC) 92 % of control

O=C(Nc1ccc(S(=O)(=O)NC2CCCCC2)cc1)OC1CCCCCC1
inactive: [3] 94 % of control | [4] 94 % of control | [2] 88 % of control

O=C1C=C(O)C2=C(CCCC2)C1=O
inactive: dose: 100.0 mg/kg/injection, schedule: Q01DX001 (ip), vehicle: water 96 % of control

COc1cc(C=Nc2ccc(Cl)cc2)ccc1N(CCCl)CCCl
inactive: dose: 21.0 mg/kg/injection, schedule: Q01DX015 (ip), vehicle: carboxymethylcellulose (CMC) 110 % of control | dose: 36.0 mg/kg/injection, schedule: Q01DX015 (ip), vehicle: carboxymethylcellulose (CMC) 95 % of control | dose: 50.0 mg/kg/injection, schedule: Q01DX001 (ip), vehicle: carboxymethylcellulose (CMC) 120 % of control | dose: 100.0 mg/kg/injection, schedule: Q01DX001 (ip), vehicle: carboxymethylcellulose (CMC) 108 % of control | dose: 133.0 mg/kg/injection, schedule: Q01DX001 (ip), vehicle: carboxymethylcellulose (CMC) 107 % of control | dose: 200.0 mg/kg/injection, schedule: Q01DX001 (ip), vehicle: carboxymethylcellulose (CMC) 117 % of control

COC(=O)c1cc(NC(=O)Nc2cc([N+](=O)[O-])ccc2C)cc(C(=O)OC)c1
inactive: dose: 100.0 mg/kg/injection, schedule: Q04DX002 (ip), vehicle: saline 120 % of control | dose: 200.0 mg/kg/injection, schedule: Q04DX002 (ip), vehicle: saline 103 % of control | dose: 400.0 mg/kg/injection, schedule: Q04DX002 (ip), vehicle: saline 116 % of control

COc1cc(C=O)ccc1OC(=O)Nc1ccc([N+](=O)[O-])cc1Cl
inactive: dose: 100.0 mg/kg/injection, schedule: Q01DX009 (ip), vehicle: Klucel (hydroxypropylcellulose) (HPC) 98 % of control | [1] 103 % of control | dose: 200.0 mg/kg/injection, schedule: Q01DX009 (ip), vehicle: Klucel (hydroxypropylcellulose) (HPC) 98 % of control | dose: 200.0 mg/kg/injection, schedule: Q04DX003 (ip), vehicle: Klucel (hydroxypropylcellulose) (HPC) 97 % of control | dose: 400.0 mg/kg/injection, schedule: Q01DX009 (ip), vehicle: Klucel (hydroxypropylcellulose) (HPC) 98 % of control | dose: 400.0 mg/kg/injection, schedule: Q04DX003 (ip), vehicle: Klucel (hydroxypropylcellulose) (HPC) 105 % of control

CS(=O)(=O)C(=O)O
inactive: [3] 96 % of control | [4] 101 % of control | [2] 98 % of control
